Results on 38 compounds are retold here after patent publication US12145939B2, “Substituted [1,2,4]triazolo[4,3-a]pyrazines as ion channel modulators” (PRAXIS PRECISION MEDICINES, INC., priority 2019, dated 2024).

T1 sequence (Q9UQD0 whole entry): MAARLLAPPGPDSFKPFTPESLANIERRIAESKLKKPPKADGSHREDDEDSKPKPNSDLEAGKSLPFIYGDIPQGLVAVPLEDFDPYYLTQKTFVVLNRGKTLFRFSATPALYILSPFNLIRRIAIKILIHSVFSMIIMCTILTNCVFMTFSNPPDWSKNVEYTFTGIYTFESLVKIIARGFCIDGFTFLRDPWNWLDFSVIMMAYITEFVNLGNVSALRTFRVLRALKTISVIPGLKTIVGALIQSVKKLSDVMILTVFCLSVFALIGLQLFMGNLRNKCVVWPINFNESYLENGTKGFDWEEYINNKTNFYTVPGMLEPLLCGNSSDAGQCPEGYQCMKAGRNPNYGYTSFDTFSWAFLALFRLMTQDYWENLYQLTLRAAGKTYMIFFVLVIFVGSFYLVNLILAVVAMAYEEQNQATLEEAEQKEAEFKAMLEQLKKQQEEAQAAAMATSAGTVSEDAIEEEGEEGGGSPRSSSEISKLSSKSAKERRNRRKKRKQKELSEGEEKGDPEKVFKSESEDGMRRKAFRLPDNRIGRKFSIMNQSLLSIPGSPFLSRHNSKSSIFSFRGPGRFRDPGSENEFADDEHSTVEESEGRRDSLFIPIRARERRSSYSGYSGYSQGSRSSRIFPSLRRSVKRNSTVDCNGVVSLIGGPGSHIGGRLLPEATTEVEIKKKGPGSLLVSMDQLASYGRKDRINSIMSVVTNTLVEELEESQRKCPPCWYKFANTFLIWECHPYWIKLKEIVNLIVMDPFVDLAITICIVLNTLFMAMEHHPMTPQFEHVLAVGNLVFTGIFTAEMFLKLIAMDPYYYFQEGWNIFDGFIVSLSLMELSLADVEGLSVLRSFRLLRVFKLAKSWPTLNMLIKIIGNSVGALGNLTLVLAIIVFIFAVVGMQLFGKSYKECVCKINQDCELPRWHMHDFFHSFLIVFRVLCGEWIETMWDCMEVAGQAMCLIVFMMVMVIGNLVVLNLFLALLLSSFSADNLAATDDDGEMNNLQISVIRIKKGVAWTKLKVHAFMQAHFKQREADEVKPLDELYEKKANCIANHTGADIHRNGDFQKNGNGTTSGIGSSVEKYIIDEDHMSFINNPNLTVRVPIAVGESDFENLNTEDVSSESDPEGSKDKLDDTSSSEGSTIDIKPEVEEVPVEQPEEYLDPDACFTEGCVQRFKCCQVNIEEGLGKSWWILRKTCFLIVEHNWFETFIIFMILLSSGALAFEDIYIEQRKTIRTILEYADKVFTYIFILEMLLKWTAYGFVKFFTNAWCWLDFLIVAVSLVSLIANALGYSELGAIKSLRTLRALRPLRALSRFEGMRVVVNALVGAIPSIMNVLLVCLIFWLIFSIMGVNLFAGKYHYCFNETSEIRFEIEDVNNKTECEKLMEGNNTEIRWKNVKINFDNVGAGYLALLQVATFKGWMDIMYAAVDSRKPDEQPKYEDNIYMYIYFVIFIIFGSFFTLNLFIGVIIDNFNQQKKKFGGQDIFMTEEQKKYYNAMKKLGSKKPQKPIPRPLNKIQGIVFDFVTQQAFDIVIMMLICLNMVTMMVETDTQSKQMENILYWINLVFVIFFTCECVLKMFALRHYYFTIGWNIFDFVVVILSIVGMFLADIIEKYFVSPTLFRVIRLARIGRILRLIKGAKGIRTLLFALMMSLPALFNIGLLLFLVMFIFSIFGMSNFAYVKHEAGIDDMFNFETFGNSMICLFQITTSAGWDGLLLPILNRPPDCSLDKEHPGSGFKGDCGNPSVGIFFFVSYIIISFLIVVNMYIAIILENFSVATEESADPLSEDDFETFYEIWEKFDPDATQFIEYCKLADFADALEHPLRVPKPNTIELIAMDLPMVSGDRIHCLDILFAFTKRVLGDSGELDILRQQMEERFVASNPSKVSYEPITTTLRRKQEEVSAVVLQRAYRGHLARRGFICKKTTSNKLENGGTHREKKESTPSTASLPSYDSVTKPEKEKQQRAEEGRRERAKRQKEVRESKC

The assay concerns the target T1, human NaV1.6 (hNaV1.6) (Homo sapiens, UniProt Q9UQD0).
T1 construct: expressed in transfected cells; host or cells: HEK-293
Kind of assay: Modulation of late sodium current (INaL) at hNaV1.6, PatchXpress electrophysiology. It is filed as cell-based. Particulars: HEK293, HEK-293 cells expressing recombinant human NaV 1.6, late current evoked by 300 nM ATX-II, read-out: NaV 1.6 Assay Data (percent inhibition of INaL at hNaV1.6). On the procedure: Functional characterization of exemplary compounds to modulate INaL expressed by the NaV1.6 voltage-gated sodium channel was accomplished using the PatchXpress™ high throughput electrophysiology platform (Molecular Devices, Sunnyvale, CA). HEK-293 cells expressing recombinant, human NaV1.6 (hNaV1.6) were grown in DMEM/high-glucose Dulbecco's modified, 10% FBS, 2 mM sodium pyruvate, 10 mM HEPES and 400 μg/mL G418. Cells were grown to 50%-80% confluency prior to harvesting. Trypsinized cells were washed, allowed to recover for 1 hour and then resuspended in extracellular recording solution at a concentration of 1×10^6 cells/ml. The onboard liquid handling facility of the PatchXpress was used for dispensing cells and applying test compounds. NaV late currents were evoked by the application of 300 nM ATX-II. INaL was evoked by depolarizing pulses to 0 mV for 200 ms from a non-inactivating holding potential (e.g., −120 mV) at a frequency of 0.1 Hz. INaL amplitude and stability were determined by analyzing the mean current amplitude over the final 20 ms of the test pulse. Following steady state block with exemplary compounds (e.g., as described herein), a Na+ free solution containing an impermeant cation (e.g., Choline or NDMG) was added to confirm the identity of the sodium current. Percent steady-state inhibition of INaL was calculated as: […], where INaL_compound and INaL_control represent INaL recorded in the presence or absence of compound, respectively.
Results from this assay relating to percent inhibition of INaL at hNaV1.6 (measured using a procedure similar to described above but using HEK-293 cells expressing recombinant, human NaV 1.6 (h NaV 1.6) at 1 μM are summarized in Table 1 below. In this table, “A” indicates inhibition of less than 30%; “B” indicates inhibition of between about 30% to about 70%; and “C” indicates inhibition of greater than 70%. “N/A” indicates not available.
The term inhibition denotes the relative decrease from the control value, in per cent. With `COC(C)(C)c1nnc2cnc(-c3ccc(OC(C)C(F)(F)F)nc3)cn12` (racemic) [Compound II-6, 3-(1-methoxy-1-methyl-ethyl)-6-[6-[rac-(1R)-2,2,2-trifluoro-1-methyl-ethoxy]-3-pyridyl]-[1,2,4]triazolo[4,3-a]pyrazine], the inhibition at 1 µM is below 30%.

For `CO[C@H](C)c1nnc2cnc(-c3cnc(OC(C)(C)C(F)(F)F)c(F)c3)cn12` (single isomer, unassigned) [Compound I-1], the inhibition at 1 µM was above 70%.

For the compound `CO[C@@H](C)c1nnc2cnc(-c3cnc(OC(C)(C)C(F)(F)F)c(F)c3)cn12` (single isomer, unassigned) [Compound I-2], the inhibition at 1 µM is 30 to 70%. To `CO[C@H](C)c1nnc2cnc(-c3cnc(OC4(C(F)(F)F)CCC4)c(F)c3)cn12` (single isomer, unassigned) [Compound I-3] belongs 30 to 70%. To `CO[C@@H](C)c1nnc2cnc(-c3cnc(OC4(C(F)(F)F)CCC4)c(F)c3)cn12` (single isomer, unassigned) [Compound I-4] belongs 30 to 70%.

As for `CO[C@@H](C)c1nnc2cnc(-c3ccc(OC4(C(F)(F)F)CCC4)nc3)cn12` (single isomer, unassigned) [Compound I-5], the inhibition at 1 µM lay in the range of 30 to 70%. Take `CO[C@H](C)c1nnc2cnc(-c3ccc(OC4(C(F)(F)F)CCC4)nc3)cn12` (single isomer, unassigned) [Compound I-6]: the inhibition at 1 µM fell in the range of 30 to 70%. Regarding `CO[C@H](C)c1nnc2cnc(-c3ccc(OC(C)(C)C(F)(F)F)nc3)cn12` (single isomer, unassigned) [Compound I-9], the inhibition at 1 µM lay in the range of 30 to 70%. The same measure for `CO[C@@H](C)c1nnc2cnc(-c3ccc(OC(C)(C)C(F)(F)F)nc3)cn12` (single isomer, unassigned) [Compound I-10]: 30 to 70%; for `CO[C@H](C)c1nnc2cnc(-c3cnc(O[C@H](C4CC4)C(F)(F)F)c(F)c3)cn12` (single isomer, unassigned) [Compound I-15]: 30 to 70%; for `CO[C@@H](C)c1nnc2cnc(-c3cnc(O[C@H](C4CC4)C(F)(F)F)c(F)c3)cn12` (single isomer, unassigned) [Compound I-16]: 30 to 70%. Regarding `CO[C@H](C)c1nnc2cnc(-c3cnc(O[C@@H](C4CC4)C(F)(F)F)c(F)c3)cn12` (single isomer, unassigned) [Compound I-17], the inhibition at 1 µM is below 30%. To `CO[C@@H](C)c1nnc2cnc(-c3cnc(O[C@@H](C4CC4)C(F)(F)F)c(F)c3)cn12` (single isomer, unassigned) [Compound I-18] belongs 30 to 70%. On to `CO[C@@H](C)c1nnc2cnc(-c3ccc(O[C@@H](C4CC4)C(F)(F)F)nc3)cn12` (single isomer, unassigned) [Compound I-21], for which the inhibition at 1 µM is below 30%. To `CO[C@H](C)c1nnc2cnc(-c3ccc(O[C@@H](C4CC4)C(F)(F)F)nc3)cn12` (single isomer, unassigned) [Compound I-22] belongs below 30%; to `CO[C@@H](C)c1nnc2cnc(-c3ccc(O[C@H](C4CC4)C(F)(F)F)nc3)cn12` (single isomer, unassigned) [Compound I-23], below 30%. Consider `CO[C@H](C)c1nnc2cnc(-c3ccc(O[C@H](C4CC4)C(F)(F)F)nc3)cn12` (single isomer, unassigned) [Compound I-24], for which the inhibition at 1 µM is below 30%.

Take `COC(F)(F)c1nnc2cnc(-c3ccc([C@@H]4CC4(F)F)cc3)cn12` (single isomer, unassigned) [Compound III-3]: the inhibition at 1 µM was above 70%. Regarding `COC(F)(F)c1nnc2cnc(-c3ccc([C@H]4CC4(F)F)cc3)cn12` (single isomer, unassigned) [Compound III-4], the inhibition at 1 µM lay within 30 to 70%. `COC(F)(F)c1nnc2cnc(-c3ccc([C@H]4CC4(F)F)cc3C)cn12` (single isomer, unassigned) [Compound III-7]: the inhibition at 1 µM is above 70%. Consider `COC(F)(F)c1nnc2cnc(-c3ccc([C@@H]4CC4(F)F)cc3C)cn12` (single isomer, unassigned) [Compound III-8], for which the inhibition at 1 µM was above 70%. `CCOC(F)(F)c1nnc2cnc(-c3ccc([C@@H](C)OCC(F)(F)F)cc3C)cn12` (single isomer, unassigned) [Compound III-9]: the inhibition at 1 µM lay in the range of 30 to 70%. Take `CCOC(F)(F)c1nnc2cnc(-c3ccc([C@H](C)OCC(F)(F)F)cc3C)cn12` (single isomer, unassigned) [Compound III-10]: the inhibition at 1 µM is below 30%. The same measure for `FC(F)(F)c1nnc2cnc(-c3ccc(O[C@H](C4CC4)C(F)(F)F)nc3)cn12` (single isomer, unassigned) [Compound III-14]: 30 to 70%; for `COC(F)(F)c1nnc2cnc(-c3ccc([C@@H](C)OCC(F)(F)F)cc3)cn12` (single isomer, unassigned) [Compound III-17]: below 30%. Turning to `COC(F)(F)c1nnc2cnc(-c3ccc([C@H](C)OCC(F)(F)F)cc3)cn12` (single isomer, unassigned) [Compound III-18], the inhibition at 1 µM was below 30%. To `CCOC(F)(F)c1nnc2cnc(-c3ccc([C@@H](C)OCC(F)(F)F)cc3)cn12` (single isomer, unassigned) [Compound III-19] belongs below 30%. To `CCOC(F)(F)c1nnc2cnc(-c3ccc([C@H](C)OCC(F)(F)F)cc3)cn12` (single isomer, unassigned) [Compound III-20] belongs 30 to 70%. The same measure for `CCO[C@@H](C)c1nnc2cnc(-c3cnc(OC4(C(F)(F)F)CCC4)c(F)c3)cn12` [Compound I-7, (S)-3-(1-ethoxyethyl)-6-(5-fluoro-6-(1-(trifluoromethyl)cyclobutoxy)pyridin-3-yl)-[1,2,4]triazolo[4,3-a]pyrazine]: 30 to 70%. For `CCO[C@@H](C)c1nnc2cnc(-c3ccc(OC(C)(C)C(F)(F)F)nc3)cn12` [Compound I-8, (S)-3-(1-ethoxyethyl)-6-(6-((1,1,1-trifluoro-2-methylpropan-2-yl)oxy)pyridin-3-yl)-[1,2,4]triazolo[4,3-a]pyrazine], the inhibition at 1 µM lay in the range of 30 to 70%. As for `CCO[C@@H](C)c1nnc2cnc(-c3ccc(OC4(C(F)(F)F)CCC4)nc3)cn12` [Compound I-11, (S)-3-(1-ethoxyethyl)-6-(6-(1-(trifluoromethyl)cyclobutoxy)pyridin-3-yl)-[1,2,4]triazolo[4,3-a]pyrazine], the inhibition at 1 µM fell in the range of 30 to 70%. To `CCO[C@@H](C)c1nnc2cnc(-c3cnc(OC(C)(C)C(F)(F)F)c(F)c3)cn12` [Compound I-12, 6-[5-fluoro-6-(2,2,2-trifluoro-1,1-dimethyl-ethoxy)-3-pyridyl]-3-[(1S)-1-ethoxyethyl]-[1,2,4]triazolo[4,3-a]pyrazine] belongs 30 to 70%.

Turning to `CCO[C@H](C)c1nnc2cnc(-c3cnc(OC(C)(C)C(F)(F)F)c(F)c3)cn12` [Compound I-13, (R)-3-(1-ethoxyethyl)-6-(5-fluoro-6-((1,1,1-trifluoro-2-methylpropan-2-yl)oxy)pyridin-3-yl)-[1,2,4]triazolo[4,3-a]pyrazine], the inhibition at 1 µM is 30 to 70%. Consider `CCO[C@H](C)c1nnc2cnc(-c3cnc(OC4(C(F)(F)F)CCC4)c(F)c3)cn12` [Compound I-14, (R)-3-(1-ethoxyethyl)-6-(5-fluoro-6-(1-(trifluoromethyl)cyclobutoxy)pyridin-3-yl)-[1,2,4]triazolo[4,3-a]pyrazine], for which the inhibition at 1 µM was 30 to 70%. The same measure for `CCO[C@H](C)c1nnc2cnc(-c3ccc(OC(C)(C)C(F)(F)F)nc3)cn12` [Compound I-19, (R)-3-(1-ethoxyethyl)-6-(6-((1,1,1-trifluoro-2-methylpropan-2-yl)oxy)pyridin-3-yl)-[1,2,4]triazolo[4,3-a]pyrazine]: 30 to 70%; for `CCO[C@H](C)c1nnc2cnc(-c3ccc(OC4(C(F)(F)F)CCC4)nc3)cn12` [Compound I-20, (R)-3-(1-ethoxyethyl)-6-(6-(1-(trifluoromethyl)cyclobutoxy)pyridin-3-yl)-[1,2,4]triazolo[4,3-a]pyrazine]: 30 to 70%; for `COC1(c2nnc3cnc(-c4cnc(OCC(F)(F)F)c(F)c4)cn23)CC1` [Compound II-1, 6-(5-fluoro-6-(2,2,2-trifluoroethoxy)pyridin-3-yl)-3-(1-methoxycyclopropyl)-[1,2,4]triazolo[4,3-a]pyrazine]: below 30%. The same measure for `COC1(c2nnc3cnc(-c4cnc(O[C@H](C)C(F)(F)F)c(F)c4)cn23)CC1` [Compound II-2, (R)-6-(5-fluoro-6-((1,1,1-trifluoropropan-2-yl)oxy)pyridin-3-yl)-3-(1-methoxycyclopropyl)-[1,2,4]triazolo[4,3-a]pyrazine]: below 30%.
